Tests used:
Test in all cases: In vitro antifungal activity, microbroth dilution MIC
Format in all cases: cell-based
Details in all cases: RPMI-1640, 35° C., 4 to 48 hours, no growth observed
[1] = test system: Aspergillus furnigatus B. 19119
In short: (§1)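 Broth microdilution adapted from NCCLS M27, in RPMI-1640 with 0.165 M MOPS, pH 7.0. Yeast or mould inoculum at 2×10^3 CFU/ml was mixed 1:1 with DMSO-derived compound solutions (200 to 0.10 μg/ml before mixing) and incubated at 35 °C for 4 to 48 h. MIC was the concentration showing no growth.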

[2] = test system: Aspergillus niger A. 16404
In short: as §1

[3] = test system: Candida albicans A. 10231
In short: as §1

Candida albicans C1-2 = test system: Candida albicans C1-2
In short: as §1

[4] = test system: Candida albicans IFO. 1385
In short: as §1

Candida krusei K. 11655 = test system: Candida krusei K. 11655
In short: as §1

[5] = test system: Candida parapsitosis A. 7330
In short: as §1

[6] = test system: Candida pseudotropicalis K. 11658
In short: as §1

[7] = test system: Candida tropicalis A. 13803
In short: as §1

[8] = test system: Cryptococcus neoformans A. 34144
In short: as §1

[9] = test system: Cryptococcus neoformans B. 42419
In short: as §1

[10] = test system: Cryptococcus neoformans IFM. 40092
In short: as §1

[11] = test system: Torulopsis glabrata B. 16205
In short: as §1

[12] = test system: Trichophyton mentagrophytes A. 9129
In short: as §1

[13] = test system: Trichophyton mentagrophytes B. 32663
In short: as §1

SMILES	Minimal inhibitory concentration(MIC), A furnigatus B. 19119 [1]	Minimal inhibitory concentration(MIC), A. niger A. 16404 [2]	Minimal inhibitory concentration(MIC), C. albicans A. 10231 [3]	Minimal inhibitory concentration(MIC), C. albicans C1-2 (Candida albicans C1-2)	Minimal inhibitory concentration(MIC), C. albicans IFO. 1385 [4]	Minimal inhibitory concentration(MIC), C. krusei K. 11655 (Candida krusei K. 11655)	Minimal inhibitory concentration(MIC), C. parapsitosis A. 7330 [5]	Minimal inhibitory concentration(MIC), C. pseudotropicalis K. 11658 [6]	Minimal inhibitory concentration(MIC), C. tropicalis A. 13803 [7]	Minimal inhibitory concentration(MIC), Cry. neoformans A. 34144 [8]	Minimal inhibitory concentration(MIC), Cry. neoformans B. 42419 [9]	Minimal inhibitory concentration(MIC), Cry. neoformans IFM. 40092 [10]	Minimal inhibitory concentration(MIC), T. glabrata B. 16205 [11]	Minimal inhibitory concentration(MIC), T. mentagrophytes A. 9129 [12]	Minimal inhibitory concentration(MIC), T. mentagrophytes B. 32663 [13]
COc1ccc(C=C(F)Oc2ccc(OCC3COC(Cn4cncn4)(c4ccc(Cl)cc4Cl)O3)cc2)cc1 (mixture of isomers) [Ex. 118]	>100 µg/mL	>100 µg/mL	25.0 µg/mL	12.5 µg/mL	1.56 µg/mL	>100 µg/mL	>100 µg/mL	25.0 µg/mL	100 µg/mL	1.56 µg/mL	1.56 µg/mL	0.39 µg/mL	50.0 µg/mL	6.25 µg/mL	3.13 µg/mL
FC(Oc1ccc(OCC2COC(Cn3cncn3)(c3ccc(Cl)cc3Cl)O2)cc1)=C(c1ccccc1)C(F)(F)F (mixture of isomers) [Ex. 119]	>100 µg/mL	>100 µg/mL	50.0 µg/mL	25.0 µg/mL	1.56 µg/mL	>100 µg/mL	>100 µg/mL	>100 µg/mL	>100 µg/mL	1.56 µg/mL	1.56 µg/mL	0.39 µg/mL	50.0 µg/mL	6.25 µg/mL	3.13 µg/mL
Cc1ccc(C(=C(F)Oc2ccc(OCC3COC(Cn4cncn4)(c4ccc(Cl)cc4Cl)O3)cc2)C(F)(F)F)cc1 (mixture of isomers) [Ex. 120]	>100 µg/mL	>100 µg/mL	25.0 µg/mL	25.0 µg/mL	1.56 µg/mL	>100 µg/mL	>100 µg/mL	>100 µg/mL	100 µg/mL	1.56 µg/mL	3.13 µg/mL	0.39 µg/mL	50.0 µg/mL	6.25 µg/mL	3.13 µg/mL
COc1ccc(C(=C(F)Oc2ccc(OCC3COC(Cn4cncn4)(c4ccc(Cl)cc4Cl)O3)cc2)C(F)(F)F)cc1 (mixture of isomers) [Ex. 121]	>100 µg/mL	>100 µg/mL	100 µg/mL	100 µg/mL	3.13 µg/mL	100 µg/mL	100 µg/mL	25.0 µg/mL	>100 µg/mL	1.56 µg/mL	1.56 µg/mL	0.20 µg/mL	50.0 µg/mL	6.25 µg/mL	3.13 µg/mL
FC(Oc1ccc(OCC2COC(Cn3cncn3)(c3ccc(Cl)cc3Cl)O2)cc1)=C(c1ccc(Cl)cc1)C(F)(F)F (mixture of isomers) [Ex. 122]	12.5 µg/mL	100 µg/mL	12.5 µg/mL	6.25 µg/mL	0.78 µg/mL	12.5 µg/mL	6.25 µg/mL	6.25 µg/mL	25.0 µg/mL	0.78 µg/mL	1.56 µg/mL	0.20 µg/mL	12.5 µg/mL	6.25 µg/mL	3.13 µg/mL
FC(Oc1ccc(OCC2COC(Cn3cncn3)(c3ccc(Cl)cc3Cl)O2)cc1)=C(c1ccc(F)cc1)C(F)(F)F (mixture of isomers) [Ex. 123]	>100 µg/mL	>100 µg/mL	25.0 µg/mL	12.5 µg/mL	1.56 µg/mL	>100 µg/mL	>100 µg/mL	25.0 µg/mL	100 µg/mL	1.56 µg/mL	1.56 µg/mL	0.39 µg/mL	50.0 µg/mL	6.25 µg/mL	3.13 µg/mL
FC(=C(c1ccccc1)C(F)(F)F)N1CCN(c2ccc(OCC3COC(Cn4ccnc4)(c4ccc(Cl)cc4Cl)O3)cc2)CC1 (mixture of isomers) [Ex. 124]	>100 µg/mL	>100 µg/mL	50.0 µg/mL	25.0 µg/mL	1.56 µg/mL	>100 µg/mL	>100 µg/mL	>100 µg/mL	>100 µg/mL	1.56 µg/mL	1.56 µg/mL	0.39 µg/mL	50.0 µg/mL	6.25 µg/mL	3.13 µg/mL
Cc1cccc(C(=C(F)N2CCN(c3ccc(OCC4COC(Cn5ccnc5)(c5ccc(Cl)cc5Cl)O4)cc3)CC2)C(F)(F)F)c1 (mixture of isomers) [Ex. 125]	>100 µg/mL	>100 µg/mL	25.0 µg/mL	25.0 µg/mL	1.56 µg/mL	>100 µg/mL	>100 µg/mL	>100 µg/mL	100 µg/mL	1.56 µg/mL	3.13 µg/mL	0.39 µg/mL	50.0 µg/mL	6.25 µg/mL	3.13 µg/mL
